From patent US20070105960A1, “Treatment of learning disabilities and motor skills disorder with norepinephrine reuptake inhibitors” (ELI LILLY AND COMPANY, priority 2003, published 2007)
“Also recorded” adds a separate entry of the source.

What was measured:
rats [1] = test: 8-arm radial maze delayed non-match to sample task; format: in vivo, rat; settings: FIG. 1
Protocol: (§1) The effects of atomoxetine on learning and memory in rats are evaluated in two different animal models. In an 8-arm radial maze delayed non-match to sample (DNMTS) task, well-trained rats recall where they received rewards during an information phase in order to obtain the remaining rewards during a retention phase conducted after a delay of several hours. Performance in this task is influenced by the administration of putative amnesics and cognitive enhancers (Staubli U, Rogers G, Lynch G (1994) Facilitation of glutamate receptors enhances memory. Proc Natl Acad Sci USA 91: 777-781; Pilcher J J, Sessions G R, McBride S A (1997) Scopolamine impairs spatial working memory in the radial maze: an analysis by error type and arm choice. Pharmacol Biochem Behav 58: 449-459; Pussinen R, Sirvio J (1999) Effects of D-cycloserine, a positive modulator of N-methyl-D-aspartate receptors, and ST 587, a putative alpha-1 adrenergic agonist, individually and in combination, on the non-delayed and delayed foraging behaviour of rats assessed in the radial arm maze. J Psychopharinacol 13:171-179; Wolff M. C., Leander, J. David (2003) A comparison of the effects of antipsychotics on a delayed radial maze task in the rat. Psychopharmacolology 168:410-416). […]

rats [2] = test: Object recognition test; format: in vivo, rat; settings: three hour delay, 60 minutes pre-treatment, FIG. 2
Protocol: as §1, with “maze.” for “maze. J Psychopharinacol 13:171-179; Wolff M. C., Leander, J. David (2003) A comparison of the effects of antipsychotics on a delayed radial maze task in the rat. Psychopharmacolology 168:410-416).”
During the testing phase of the experiment, rats are administered appropriate vehicle or drug (N=9/dose) and placed back in their home cage for the pre-treatment period (60 minutes). […] The time spent sniffing (nose <2.5 cm from the object), gnawing, or touching the objects with the front paws is recorded. […]

CNCC[C@@H](Oc1ccccc1C)c1ccccc1 [atomoxetine, (R)-(−)-N-methyl-3-(2-methyl-phenoxy)-3-phenylpropylamine] was tested, and the “errors in the 8 arm radial maze retention paradigm” value (rats [1]) was “reduction of errors”, the “learning and memory performance in the 8 arm radial maze” value (rats [1]; oral, 7 hour delay) was “improves learning and memory performance” and the object recognition (rats [2]) was “improves object recognition; also recorded: improvement of object recognition”.
